Data set [1] has as its system HT-1080. The data set can be described thus: animal or person. Conditions: Rattus norvegicus, HT-1080, iv, 336 h, read-out: MED.
A short description of data set [2]: in vitro. The note with it: human, plasma.
Description: (§1) Unbound fraction in human plasma at 2 uM incubated for 2 hrs by LC/MS/MS analysis
Data set [3] can be described thus: in vitro. The note with it: human, plasma. This is another data set of the same source.
Description: Half life in human plasma at 2 uM by LC/MS/MS analysis
The nature of data set [4]: in vitro. The note with it: mouse, plasma.
Description: Half life in mouse plasma at 2 uM by LC/MS/MS analysis
For data set [5] the following is noted: human, plasma, 2 h, 2 µM.
Description: as §1

Consider `COc1cc2cc(c1Cl)N(C)C(=O)C[C@@H](OC(=O)[C@@H](C)N(C)C(=O)CCSSCCCC(=O)NCCC(=O)N(C)C(=O)CN(C)C(=O)CN(C)C(=O)CN(C)C(=O)CN(C)C(=O)CN(C)C(=O)CN(C)CC(=O)N(C)CC(=O)N(C)CC(=O)N(C)CC(=O)N[C@@H](C)C(=O)N[C@@H](CCCNC(=N)N)C(=O)N[C@@H](CC(=O)O)C(=O)N[C@H]1CSCCC(=O)N3CN4CN(C3)C(=O)CCSC[C@H](NC(=O)[C@H](CC(C)C)NC(=O)[C@@H]3CCCN3C(=O)[C@H](CC(N)=O)NC(=O)[C@H](C(C)C)NC(=O)[C@H](CC(C)C)NC(=O)[C@@H]3CCCN3C1=O)C(=O)N[C@@H](CC(C)C)C(=O)N[C@@H](Cc1c[nH]cn1)C(=O)N1CCC[C@H]1C(=O)N[C@H](CC(=O)O)C(=O)N[C@@H](CC1CCc3ccccc31)C(=O)NC(CCCCNC(=N)N)C(=O)N[C@H](C(N)=O)CSCCC4=O)[C@@]1(C)O[C@@H]1[C@@H](C)[C@H]1C[C@](O)(NC(=O)O1)[C@@H](OC)/C=C/C=C(\C)C2` (some centres undefined), for which the minimal effective dose in data set [1] stood at 3 mg/kg. The same molecule displayed a fraction unbound at 2 h, 2 µM in data set [2] of 0.44.

For the molecule `CC(C)C[C@@H]1NC(=O)[C@@H]2CSCCC(=O)N3CN(CN(C3)C(=O)CCSC[C@H](NC(=O)[C@H](CC(=O)O)NC(=O)[C@H](CCCNC(=N)N)NC(=O)[C@H](C)NC(=O)CN(C)C(=O)CN(C)C(=O)CN(C)C(=O)CN(C)CC(=O)N(C)CC(=O)N(C)CC(=O)N(C)CC(=O)N(C)CC(=O)N(C)CC(=O)N(C)C(=O)CCN)C(=O)N3CCC[C@H]3C(=O)N[C@@H](CC(C)C)C(=O)N[C@@H](C(C)C)C(=O)N[C@@H](CC(N)=O)C(=O)N3CCC[C@H]3C(=O)N[C@@H](CC(C)C)C(=O)N2)C(=O)CCSC[C@@H](C(N)=O)NC(=O)C(CCCCNC(=N)N)NC(=O)[C@H](CC2CCc3ccccc32)NC(=O)[C@@H](CC(=O)O)NC(=O)[C@@H]2CCCN2C(=O)[C@H](Cc2c[nH]cn2)NC1=O` (some centres undefined), the half-life at 2 µM is greater than 55 h in data set [3] and 33 h in data set [4]. Also, the fraction unbound at 2 h, 2 µM in data set [2] amounted to 0.41.

With `CC(C)[C@H](NC(=O)[C@@H](CC(=O)O)NC(=O)[C@H](Cc1c[nH]cn1)NC(=O)CN(C)C(=O)CN(C)C(=O)CN(C)C(=O)CN(C)CC(=O)N(C)CC(=O)N(C)CC(=O)N(C)CC(=O)N(C)CC(=O)N(C)CC(=O)N(C)C(=O)CCN)C(=O)N1CCC[C@H]1C(=O)N[C@@H]1CSCc2cc3cc(c2)CSC[C@H](C(N)=O)NC(=O)[C@@H](CC(=O)O)NC(=O)[C@@H]2CCCN2C(=O)[C@H](CCCCNC(=N)N)NC(=O)[C@H](CC(N)=O)NC(=O)[C@H](C(C)(C)C)NC(=O)[C@@H]2CCCN2C(=O)[C@H](CSC3)NC(=O)[C@H](Cc2cccc3ccccc23)NC(=O)[C@H](Cc2ccccc2)NC(=O)C(C)(C)NC(=O)CNC(=O)[C@H](Cc2cccc3ccccc23)NC(=O)C(C)(C)NC1=O`, in data set [5], the Fu result is “Bld”.

Turning to `CC(=O)N[C@@H](C)C(=O)N[C@@H](CCCNC(=N)N)C(=O)N[C@@H](CC(=O)O)C(=O)N[C@@H](CS)C(=O)N1CCC[C@H]1C(=O)N[C@@H](CC(C)C)C(=O)N[C@H](C(=O)N[C@@H](CC(N)=O)C(=O)N1CCC[C@H]1C(=O)N[C@@H](CC(C)C)C(=O)N[C@@H](CS)C(=O)N[C@@H](CC(C)C)C(=O)N[C@@H](Cc1cnc[nH]1)C(=O)N1CCC[C@H]1C(=O)NCC(=O)N[C@@H](Cc1c[nH]c2ccccc12)C(=O)N[C@H](C(=O)N[C@@H](CS)C(=O)O)[C@@H](C)O)C(C)C`, the half-life at 2 µM was 3.7 h in data set [3] and 3.6 h in data set [4]. Also, the fraction unbound at 2 h, 2 µM in data set [2] stood at 0.646.

In general, fraction unbound refers to the share of the substance not bound to proteins or other matrix. Lower therefore signals little free substance. As usually defined, the half-life is the time in which the quantity being followed falls by half. A lower half-life goes with rapid decline.

The values are drawn from ChEMBL document CHEMBL4602699, “Identification and Optimization of EphA2-Selective Bicycles for the Delivery of Cytotoxic Payloads” (J Med Chem, 2020).
